Results as given in patent US9914726B2, “2-(2,4-difluorophenyl)-1,1-difluoro-1-(5-substituted-pyridin-2-yl)-3-(1H-tetrazol-1-yl)propan-2-ols and processes for their preparation” (Viamet Pharmaceuticals, Inc., priority 2014, dated 2018).

How the values were obtained:
[1] = test system: Mycosphaerella graminicola; anamorph: Septoria tritici (SEPTTR); assay: Fungicidal activity: leaf blotch of wheat (SEPTTR), wheat seedlings sprayed and inoculated; assay type: in vivo; conditions: 50 ppm, wheat plants (variety Yuma); for SEPTTR 1DP (% disease control rating): 1 Day Protectant; for SEPTTR 3DC (% disease control rating): 3 Day Curative
Protocol: Technical grades of materials shown in Table 1 below were dissolved in acetone, which were then mixed with nine volumes of water containing 110 ppm Triton X-100. The fungicide solutions were applied onto wheat seedlings using an automated booth sprayer to run-off. All sprayed plants were allowed to air dry prior to further handling. All fungicides were evaluated using the aforementioned method for their activity vs. all target diseases. Wheat plants (variety Yuma) were grown from seed in a greenhouse in 50% mineral soil/50% soil-less Metro mix until the first leaf was fully emerged, with 7-10 seedlings per pot. These plants were inoculated with an aqueous spore suspension of Septoria tritici either prior to or after fungicide treatments. After inoculation the plants were kept in 100% relative humidity (one day in a dark dew chamber followed by two to three days in a lighted dew chamber at 20° C.) to permit spores to germinate and infect the leaf. The plants were then transferred to a greenhouse set at 20° C. for disease to develop. When disease symptoms were fully expressed on the 1st leaves of untreated plants, infection levels were assessed on a scale of 0 to 100 percent disease severity. Percent disease control was calculated using the ratio of disease severity on treated plants relative to untreated plants.

[2] = test system: Puccinia triticina; synonym: Puccinia recondita f. sp. tritici (PUCCRT); assay: Fungicidal activity: wheat brown rust (PUCCRT), wheat seedlings sprayed and inoculated; assay type: in vivo; conditions: 50 ppm, wheat plants (variety Yuma); for PUCCRT 1DC (% disease control rating): 1 Day Curative; for PUCCRT 1DP (% disease control rating): 1 Day Protectant

Compound	SEPTTR 1DP (% disease control rating) [1]	SEPTTR 3DC (% disease control rating) [1]	PUCCRT 1DC (% disease control rating) [2]	PUCCRT 1DP (% disease control rating) [2]
N#Cc1ccc(Oc2ccc(C(F)(F)C(O)(Cn3nnnc3C(=O)c3ccccc3)c3ccc(F)cc3F)nc2)cc1 (stereo not shown) [—C(O)Ph, 4-((6-(3-(5-benzoyl-1H-tetrazol-1-yl)-2-(2,4-difluorophenyl)-1,1-difluoro-2-hydroxypropyl)pyridin-3-yl)oxy)benzonitrile]	C (40-59)	C (40-59)	D (<40)	A (80-100)
CC(=O)c1nnnn1CC(O)(c1ccc(F)cc1F)C(F)(F)c1ccc(Oc2ccc(C#N)cc2)cn1 (stereo not shown) [—C(O)Me, 4-((6-(3-(5-acetyl-1H-tetrazol-1-yl)-2-(2,4-difluorophenyl)-1,1-difluoro-2-hydroxypropyl)pyridin-3-yl)oxy)benzonitrile]	A (80-100)	A (80-100)	A (80-100)	A (80-100)
Cc1ccc(S(=O)(=O)c2nnnn2CC(O)(c2ccc(F)cc2F)C(F)(F)c2ccc(Oc3ccc(C#N)cc3)cn2)cc1 (stereo not shown) [—SO2(4-MePh), 4-((6-(2-(2,4-difluorophenyl)-1,1-difluoro-2-hydroxy-3-(5-tosyl-1H-tetrazol-1-yl)propyl)pyridin-3-yl)oxy)benzonitrile]	C (40-59)	D (<40)	A (80-100)	D (<40)
CCOC(=O)c1nnnn1CC(O)(c1ccc(F)cc1F)C(F)(F)c1ccc(Oc2ccc(C#N)cc2)cn1 (stereo not shown) [—CO2Et, ethyl 1-(3-(5-(4-cyanophenoxy)pyridin-2-yl)-2-(2,4-difluorophenyl)-3,3-difluoro-2-hydroxypropyl)-1H-tetrazole-5-carboxylate]	A (80-100)	A (80-100)	A (80-100)	A (80-100)
